The melting point is the temperature, or range, at which the solid turns liquid.

Drawing on a melting point compilation (Tetko et al.; mined from patent text by program, amines drawn as free bases though some values may be those of a salt), this text covers melting point for 61 molecules.

A value given as a limit tells only on which side of the number the result lay.

In the case of `OCc1cccc(/C=C/c2ccc3ccc(Cl)cc3n2)c1`, the melting point was determined as 141 °C. `CSc1cnc2ccsc2c1O` returned a melting point of 210 to 212 °C. To `COc1ccc(C(C)N(C)CCCOc2ccc(S(=O)(=O)c3c(C(C)C)cn4ccccc34)cc2)cc1OC` (stereo unspecified) belongs 82 to 83 °C. Take `CS(=O)(=O)c1ccc(-c2oc(CC(=O)O)nc2-c2ccc(F)cc2)cc1`: the melting point is 118 to 120 °C. `C[C@@H](N)CNc1ccnc2cc(Cl)ccc12` showed a melting point of 145 °C. The molecule `NC(=O)NCCCCCC1CCSS1` (stereo unspecified) showed a melting point of 74 to 78 °C. Turning to `Cc1cccc(N2CC(=O)N(c3ccc(S(N)(=O)=O)cc3Cl)C2)c1`, the melting point fell in the range of 198 to 202 °C.

`COc1ccc(C2(O)C(=O)Nc3ccc(Cl)cc32)cc1` (stereo unspecified) came in with a melting point of 202 °C.

Turning to `Cc1ccc(-c2c(NS(=O)(=O)c3ccc(C(C)(C)C)cc3)ncnc2OCCOc2ccc(N)cc2)cc1`, the melting point lay in the range of 190 to 191 °C.

On to `CNC(=O)N(C)c1nnc(C(C)(CCl)CCl)s1`, for which the melting point is 150 to 152 °C. `CN1C(=O)[C@H](NC(=O)CCc2ccc(Cl)cc2Cl)N=C(c2ccccc2)c2cc(N)ccc21`: the melting point is 179 to 180 °C.

As to `COc1ccc(-c2ccc(C=C3SC(=O)NC3=O)cc2)cc1C12CC3CC(CC(C3)C1)C2`, the melting point was 304 to 306 °C.

Turning to `O=C(c1cnccn1)N1CCCC(c2ccccc2)=N1`, the melting point is 98 to 100 °C. Molecule `CC(=O)c1ccc(S(=O)(=O)NCc2ccccc2-c2ccccc2C(=O)NCCc2ccccc2)cc1` had a melting point of 145 °C. As to `COC(=O)c1ccccc1C1(c2ccccc2)OCC(CCl)O1` (stereo unspecified), the melting point was 90 to 91 °C. To `COc1cnc(CSc2nc3cc4c(cc3[nH]2)OC(F)(F)O4)c(C)c1OC` belongs 160 to 161 °C. Consider `NS(=O)(=O)c1cccc(C(=O)Nc2ccc(-n3nc(C(F)(F)F)cc3C(F)(F)F)cc2)c1`, for which the melting point was 177 to 178 °C. For `O=C(O)c1ccc(CN2CCC(CCCC(=O)c3ccc4c(c3)CCN(Cc3ccccc3)CC4)CC2)cc1`, the melting point fell in the range of 165 to 176 °C. Regarding `CCOC(=O)C1CCc2ccc(N)c(C)c2O1` (stereo unspecified), the melting point was 82 to 85 °C. In the case of `Cc1ccc2c3c(ccc2n1)OC[C@H](CN1CCN(c2ccc4cc(Br)ccc4n2)CC1)O3`, the melting point lay within 153 to 154 °C. Molecule `O=c1[nH]c(=O)n2c3c1cnn3C(c1cccc(C(F)(F)F)c1)CC2` (stereo unspecified) registered a melting point of 297 to 300 °C. In turn, `Cc1ccc(S(=O)(=O)N2CCC[C@H](C(C#N)(c3ccccc3)c3ccccc3)C2)cc1` returned a melting point of 148 to 150 °C. To `CN(C)CC(=O)N1c2ccccc2N(C)S(=O)(=O)c2ccc(Cl)cc21` belongs 138 to 139 °C; to `CC(C)(C)CNS(=O)(=O)c1cccc(NC(=O)c2cnn3c(C(F)F)cc(-c4ccc(C(F)(F)F)cc4)nc23)c1`, 208 °C. Take `CCOC(=O)Cc1ccc(-c2nc(COc3ccc(COc4nn(-c5ccccc5)cc4/C=C/c4nc(CC)sc4C)cc3OC)c(C)o2)cc1`: the melting point lay within 127 to 128 °C.

`O=C1c2ccccc2C(=O)N1CCCCN1CCC(=C(c2ccccc2)c2ccccc2)CC1` showed a melting point of 102 to 103 °C. Regarding `O=C(NCc1ccccn1)Nc1cc(N2CC3(CCCCC3)CC2=O)ccn1`, the melting point lay within 191 to 192 °C.

The molecule `CC(C)(C)c1cc(CC(O)=S)cc(C(C)(C)C)c1O` returned a melting point of 130 °C.

The molecule `Cc1cc(C=CC(=O)O)c(Cl)nc1C` showed a melting point of 150 to 158 °C. The molecule `O=C1NCCN1c1ccc(S(=O)(=O)Nc2cccc(Br)c2)cc1` gave a melting point of 184 to 185 °C. `CCN(CC)S(=O)(=O)c1c(Cl)c(Cl)c(Cl)c2nc(C(F)(F)F)[nH]c12` had a melting point of 155 to 157 °C. `COc1ccc(CC(=O)O)cc1OCCCc1cn(-c2ccc(C(F)(F)F)cn2)nc1C(C)C`: the melting point was 122 to 123 °C.

In the case of `C=C(CS(C)(=O)=O)C(=O)O`, the melting point was 147 to 149 °C. As for `Cc1c(S(=O)(=O)C(F)(F)F)cc(-c2ccc(S(C)(=O)=O)cc2)n1-c1ccc(F)cc1`, the melting point is 162 to 164 °C. As for `FC(F)(F)c1ccc(C=Cc2nc(CCl)cs2)cc1`, the melting point was 93 to 95 °C. `CC(=O)NC[C@H]1CN(c2ccc(N3CCC4(CC3)OCCS4)c(F)c2)C(=O)O1`: the melting point was in the range of 160 to 164 °C. With `c1ccc(COc2cc(OCc3ccccc3)cc(OCc3ccccc3)c2)cc1`, the melting point lay within 91.5 to 91.9 °C. For `CN(C)CCNc1ccc(-c2nn(CC(=O)O)c3ncccc23)cc1`, the melting point is 240 to 242 °C. The molecule `N#Cc1cnn2c1NCC=C2c1cccc(C(F)(F)F)c1` gave a melting point of 175 to 177 °C. The molecule `COc1cccc2c1nc(C(F)F)n2-c1nc(Nc2ccc(Cl)nc2)nc(N2CCOCC2)n1` displayed a melting point of 260 to 262 °C. For the molecule `Cc1ccccc1-c1cc(N2CCN(C)CC2)ncc1N(C)C(=O)C(C)(C)c1cc(C(F)(F)F)cc(C(F)(F)F)c1`, the melting point lay within 155 to 157 °C. In turn, `CC(=O)NCCCC(=O)N1CCCC(=O)c2ccc(Cl)cc2CCC1=O` came in with a melting point of 135 to 136 °C. Take `N[C@@]1(C(=O)O)C[C@H](NC(=O)Nc2ccccc2F)[C@H]2[C@H](C(=O)O)[C@H]21` (relative stereo): the melting point was greater than 270 °C.

The molecule `CCn1nc(C2CC2)c(C(=O)O)c1Cc1ccc(-c2ccccc2-c2nnn[nH]2)cc1` displayed a melting point of 227 to 229 °C. In the case of `CCOC(COc1ccc(Cl)c2cccnc12)OCC`, the melting point lay in the range of 51 to 53 °C.

In turn, `COc1ccc2c(-c3ccccc3)c(C(=O)c3cccc(Cl)c3)sc2c1` came in with a melting point of 105 °C.

For the molecule `CNc1c2oc3ccccc3c2nn1C`, the melting point fell in the range of 154 to 156 °C. Take `COc1ccc2cc(S(N)(=O)=O)[nH]c2c1`: the melting point is 171 to 172 °C. `O=C1N(Cc2cccc(Cl)n2)c2ccccc2C12COc1cc3c(cc12)OCCO3` (stereo unspecified) displayed a melting point of 181 to 182 °C. `N#Cc1cc(C2=NOC(c3cc(Cl)cc(Cl)c3)(C(F)(F)F)C2)ccc1F` (stereo unspecified) had a melting point of 136 to 139 °C. `CCOC(=O)c1ccc(NS(C)(=O)=O)c([N+](=O)[O-])c1` returned a melting point of 124 °C.

The molecule `CC1CCC(N(CC2CCC(CN(C(=O)Nc3ccc(N4CCCC4)cc3)C3CCC(C)CC3)CC2)C(=O)Nc2ccc(N3CCCC3)cc2)CC1` (stereo unspecified) displayed a melting point of 149 to 155 °C. As to `COC(=O)C1=Cc2cc(Br)ccc2N(c2ccccc2)CC1`, the melting point was in the range of 104 to 106 °C. As for `CC(C)(NC(=O)OCc1ccccc1)C(=O)NC(c1ccccc1)c1ccccc1`, the melting point lay within 157 to 159 °C.

In turn, `COC(=O)[C@@H]1[C@@H](O)CCN1C(=O)Nc1ccc(C#N)c(Cl)c1C` had a melting point of 189 to 191 °C. As for `CC(C)C[C@H](NC(=O)c1cccc2c1Nc1ccccc1S2)C(=O)N[C@H]1CCOC1O` (stereo partly specified), the melting point lay within 99 to 101 °C. As to `COc1cc(/C=C/C=C/C(=O)NCCCN2CCC(c3c[nH]c4ccccc34)CC2)cc(OC)c1O`, the melting point fell in the range of 176 to 179 °C.

Molecule `O=[N+]([O-])c1ccc(NN=C(c2ccc(O)cc2O)c2ccc(O)cc2O)c([N+](=O)[O-])c1` registered a melting point of 240 to 242 °C. In turn, `CN(C)NC(=O)NCCCCC1CCSS1` (stereo unspecified) returned a melting point of 60 to 61 °C. To `O=C(NO)[C@H](CNS(=O)(=O)c1ccc(OCC2CC2)cc1)N1CCOCC1` belongs 147 °C; to `OCCNC(=S)C1(c2ccccn2)CCCS1` (stereo unspecified), 132 °C.
